These are literature values, as cited in patent US20090306023A1, “STABLE ORGANIC PEROXIDE COMPOSITIONS” (priority 2005, published 2009).

The conditions of this data set: room temperature.

In the case of `O=C(O)c1ccccc1O` [Salicylic acid, 2-hydroxybenzoic acid], the “limit of solubility in water” value is “approximately 0.2%”.
